Experimental data published in patent US20210017295A1, “BISPECIFIC BINDING AGENTS AND USES THEREOF” (MEMORIAL SLOAN KETTERING CANCER CENTER, priority 2018, published 2021).
Values joined by “and” are separate entries in the source; they are usually repeats but may differ in a detail not shown here. Equal entries are not always repeated.

Key:
[1] = test system: s.c. HER2(+) BT-474 tumors; experiment: Dosimetry calculations (estimated absorbed doses, therapeutic index); conditions: optimized anti-HER2-DOTA-PRIT, from 1.0-336 h biodistribution
Description: For each tissue, the non-decay-corrected time-activity concentration data were fit using Excel to a 1-component, 2-component, or more complex exponential function as appropriate, and analytically integrated to yield the cumulated activity concentration per unit administered activity (MBq-h/g per MBq). The ^177Lu equilibrium dose constant for non-penetrating radiations (8.49 g-cGy/MBq-h) was used to estimate the tumor-to-tumor and select organ-to-organ self-absorbed doses, assuming complete local absorption of the ^177Lu beta rays only, and ignoring the gamma ray and non-self dose contributions.

Hematology panel = format: in vivo, mouse; conditions: small tumors; single-cycle study, 55.5 MBq; ~85 d

SMILES: Nc1ccc(CC2CN(CC(=O)[O-])CCN(CC(=O)[O-])CCN(CC(=O)[O-])CCN2CC(=O)[O-])cc1.[177Lu+3] (centres unmarked) [^177Lu-DOTA-Bn]
- Estimated absorbed dose, Blood [1]: 1.4 cGy/MBq
- Estimated absorbed dose, Bone [1]: 0.7 cGy/MBq
- Estimated absorbed dose, Heart [1]: 0.4 cGy/MBq
- Estimated absorbed dose, Kidneys [1]: 5.6 cGy/MBq
- Estimated absorbed dose, Large Intestine [1]: 0.8 cGy/MBq
- Estimated absorbed dose, Liver [1]: 3.3 cGy/MBq
- Estimated absorbed dose, Lung [1]: 1.3 cGy/MBq
- Estimated absorbed dose, Muscle [1]: 0.9 cGy/MBq
- Estimated absorbed dose, Small Intestine [1]: 0.4 cGy/MBq
- Estimated absorbed dose, Spleen [1]: 0.3 cGy/MBq
- Estimated absorbed dose, Stomach [1]: 0.3 cGy/MBq
- Estimated absorbed dose, Tumor [1]: 39.9 cGy/MBq
- HGB (Hematology panel): 13.1 g/dL and 12.9 g/dL and 14.3 g/dL and 14.9 g/dL and 14.0 g/dL
- RBC (Hematology panel): 8.22 M/μL and 7.74 M/μL and 8.54 M/μL and 8.80 M/μL and 8.32 M/μL
